PubChem BioAssay AID1259407 (Chemical Carcinogenesis Research Information System (CCRIS), 2018)
Activity calls are given as the source filed them. How the calls were made is not given here.

Test system: CCRIS mutagenicity, Ames/micronucleus/aberration tests
Test: CCRIS mutagenicity studies

Q: With `CCOC(N)=O` as the compound, how does the mutagenic call (End Point: IN VITRO MICRONUCLEUS, Test System: CHL/IU CELLS, Metabolic Activation: RAT, LIVER, S-9, PHENOBARBITAL AND 5,6-BENZOFLAVONE) read?
A: inactive; negative

Q: What about the mutagenic call (End Point: IN VITRO MICRONUCLEUS, Test System: V79 CELLS, Metabolic Activation: NONE) of the same compound?
A: inactive; negative

Q: And the mutagenic call (End Point: IN VIVO MICRONUCLEUS, Test System: BLOOD PERIPHERAL POLYCHROMATIC AND NORMOCHROMATIC ERYTHROCYTES, Species: MICE, Strain/Sex: CYP2E1+/+ WILD TYPE/MALE, Route: ORAL (GAVAGE))?
A: active; positive for both types of cells

Q: What about the mutagenic call (End Point: IN VIVO MICRONUCLEUS, Test System: BLOOD PERIPHERAL POLYCHROMATIC AND NORMOCHROMATIC ERYTHROCYTES, Species: MOUSE, Strain/Sex: CYP2E1-/- KO (KNOCKOUT)/MALE, Route: ORAL (GAVAGE)) of the same compound?
A: inactive; negative for nce; equivocal for pce

Q: And the mutagenic call (End Point: IN VIVO MICRONUCLEUS, Test System: ERYTHROCYTES, Species: MOUSE, Strain/Sex: WILD-TYPE (CYP2E1+/+, WT)/MALE, Route: GAVAGE)?
A: active; positive; significant dose-dependent increase in both polychromatic and normochr

Q: What about the mutagenic call (End Point: IN VIVO MICRONUCLEUS, Test System: PERIPHERAL BLOOD ERYTHROCYTES, Species: MOUSE, Strain/Sex: KNOCK OUT (CYP2E1-/-, KO)/MALE, Route: GAVAGE) of the same compound?
A: inactive; negative (normochromatic erythrocytes); authors described results in polychromat

Q: And the mutagenic call (Test System: AMES SALMONELLA TYPHIMURIUM, Strain/Indicator: TA97, Metabolic Activation: HAMSTER, LIVER, S-9, AROCLOR 1254 (30%), Method: PREINCUBATION)?
A: inactive; negative

Q: And the mutagenic call (Test System: AMES SALMONELLA TYPHIMURIUM, Strain/Indicator: TA97, Metabolic Activation: NONE, Method: PREINCUBATION)?
A: inactive; negative

Q: And the mutagenic call (Test System: AMES SALMONELLA TYPHIMURIUM, Strain/Indicator: TA97, Metabolic Activation: RAT, LIVER, S-9, AROCLOR 1254 (30%), Method: PREINCUBATION)?
A: inactive; negative

Q: What about the mutagenic call (Test System: AMES SALMONELLA TYPHIMURIUM, Strain/Indicator: TA98, Metabolic Activation: HAMSTER, LIVER, S-9, AROCLOR 1254 (30%), Method: PREINCUBATION) of the same compound?
A: inactive; negative

Q: What about the mutagenic call (Test System: AMES SALMONELLA TYPHIMURIUM, Strain/Indicator: TA98, Metabolic Activation: NONE, Method: PREINCUBATION) of the same compound?
A: inactive; negative

Q: And the mutagenic call (Test System: AMES SALMONELLA TYPHIMURIUM, Strain/Indicator: TA98, Metabolic Activation: RAT LIVER S-9, AROCLOR 1254, Method: PREINCUBATION)?
A: inactive; negative

Q: And the mutagenic call (Test System: AMES SALMONELLA TYPHIMURIUM, Strain/Indicator: TA98, Metabolic Activation: RAT, LIVER, S-9, AROCLOR 1254 (30%), Method: PREINCUBATION)?
A: inactive; negative

Q: And the mutagenic call (Test System: AMES SALMONELLA TYPHIMURIUM, Strain/Indicator: TA98, Metabolic Activation: RAT, LIVER, S-9, ETHANOL, Method: PREINCUBATION)?
A: inactive; negative

Q: And the mutagenic call (Test System: AMES SALMONELLA TYPHIMURIUM, Strain/Indicator: TA98, Metabolic Activation: RAT, LIVER, S-9, PYRAZOLE, Method: PREINCUBATION)?
A: inactive; negative

Q: What about the mutagenic call (Test System: AMES SALMONELLA TYPHIMURIUM, Strain/Indicator: TA98, Metabolic Activation: RAT, LIVER, S-9, Method: STANDARD PLATE) of the same compound?
A: inactive; negative

Q: What about the mutagenic call (Test System: AMES SALMONELLA TYPHIMURIUM, Strain/Indicator: TA100, Metabolic Activation: HAMSTER, LIVER, S-9, AROCLOR 1254 (5, 10 OR 30%), Method: PREINCUBATION) of the same compound?
A: inactive; negative

Q: What about the mutagenic call (Test System: AMES SALMONELLA TYPHIMURIUM, Strain/Indicator: TA100, Metabolic Activation: NONE, Method: PREINCUBATION) of the same compound?
A: inactive; negative

Q: And the mutagenic call (Test System: AMES SALMONELLA TYPHIMURIUM, Strain/Indicator: TA100, Metabolic Activation: RAT LIVER S-9, AROCLOR 1254, Method: PREINCUBATION)?
A: inactive; negative

Q: And the mutagenic call (Test System: AMES SALMONELLA TYPHIMURIUM, Strain/Indicator: TA100, Metabolic Activation: RAT, LIVER, S-9, AROCLOR 1254 (5, 10 OR 30%), Method: PREINCUBATION)?
A: inactive; negative

Q: What about the mutagenic call (Test System: AMES SALMONELLA TYPHIMURIUM, Strain/Indicator: TA100, Metabolic Activation: RAT, LIVER, S-9, ETHANOL, Method: PREINCUBATION) of the same compound?
A: inactive; negative

Q: What about the mutagenic call (Test System: AMES SALMONELLA TYPHIMURIUM, Strain/Indicator: TA100, Metabolic Activation: RAT, LIVER, S-9, PYRAZOLE, Method: PREINCUBATION) of the same compound?
A: inactive; negative

Q: And the mutagenic call (Test System: AMES SALMONELLA TYPHIMURIUM, Strain/Indicator: TA100, Metabolic Activation: RAT, LIVER, S-9, Method: STANDARD PLATE)?
A: inactive; negative

Q: And the mutagenic call (Test System: AMES SALMONELLA TYPHIMURIUM, Strain/Indicator: TA102, Metabolic Activation: NONE, Method: PREINCUBATION)?
A: inactive; negative

Q: What about the mutagenic call (Test System: AMES SALMONELLA TYPHIMURIUM, Strain/Indicator: TA102, Metabolic Activation: RAT LIVER S-9, AROCLOR 1254, Method: PREINCUBATION) of the same compound?
A: inactive; negative

Q: And the mutagenic call (Test System: AMES SALMONELLA TYPHIMURIUM, Strain/Indicator: TA102, Metabolic Activation: RAT LIVER S-9, PHENOBARBITAL AND 5,6-BENZOFLAVONE, Method: STANDARD PLATE)?
A: inactive; negative

Q: What about the mutagenic call (Test System: AMES SALMONELLA TYPHIMURIUM, Strain/Indicator: TA102, Metabolic Activation: RAT, LIVER, S-9, ETHANOL, Method: PREINCUBATION) of the same compound?
A: inactive; negative

Q: And the mutagenic call (Test System: AMES SALMONELLA TYPHIMURIUM, Strain/Indicator: TA102, Metabolic Activation: RAT, LIVER, S-9, PYRAZOLE, Method: PREINCUBATION)?
A: inactive; negative

Q: And the mutagenic call (Test System: AMES SALMONELLA TYPHIMURIUM, Strain/Indicator: TA1535, Metabolic Activation: HAMSTER, LIVER, S-9, AROCLOR 1254 (30%), Method: PREINCUBATION)?
A: active; positive

Q: And the mutagenic call (Test System: AMES SALMONELLA TYPHIMURIUM, Strain/Indicator: TA1535, Metabolic Activation: NONE, Method: PREINCUBATION)?
A: inactive; negative

Q: What about the mutagenic call (Test System: AMES SALMONELLA TYPHIMURIUM, Strain/Indicator: TA1535, Metabolic Activation: RAT, LIVER, S-9, AROCLOR 1254 (5 OR 10%), Method: PREINCUBATION) of the same compound?
A: inactive; negative

Q: What about the mutagenic call (Test System: AMES SALMONELLA TYPHIMURIUM, Strain/Indicator: TA1535, Metabolic Activation: RAT, LIVER, S-9, AROCLOR 1254 (30%), Method: PREINCUBATION) of the same compound?
A: inactive; negative

Q: And the mutagenic call (Test System: AMES SALMONELLA TYPHIMURIUM, Strain/Indicator: TA1535, Metabolic Activation: RAT, LIVER, S-9, ETHANOL, Method: PREINCUBATION)?
A: inactive; negative

Q: What about the mutagenic call (Test System: AMES SALMONELLA TYPHIMURIUM, Strain/Indicator: TA1535, Metabolic Activation: RAT, LIVER, S-9, PYRAZOLE, Method: PREINCUBATION) of the same compound?
A: inactive; negative

Q: What about the mutagenic call (Test System: AMES SALMONELLA TYPHIMURIUM, Strain/Indicator: TA1537, Metabolic Activation: HAMSTER, LIVER, S-9, AROCLOR 1254 (30%), Method: PREINCUBATION) of the same compound?
A: inactive; negative

Q: And the mutagenic call (Test System: AMES SALMONELLA TYPHIMURIUM, Strain/Indicator: TA1537, Metabolic Activation: NONE, Method: PREINCUBATION)?
A: inactive; negative

Q: And the mutagenic call (Test System: AMES SALMONELLA TYPHIMURIUM, Strain/Indicator: TA1537, Metabolic Activation: RAT, LIVER, S-9, AROCLOR 1254 (30%), Method: PREINCUBATION)?
A: inactive; negative

Q: What about the mutagenic call (Test System: AMES SALMONELLA TYPHIMURIUM, Strain/Indicator: TA1537, Metabolic Activation: RAT, LIVER, S-9, PYRAZOLE, Method: PREINCUBATION) of the same compound?
A: inactive; negative

Q: What about the mutagenic call (Test System: AMES SALMONELLA TYPHIMURIUM, Strain/Indicator: TA2638, Metabolic Activation: RAT LIVER S-9, PHENOBARBITAL AND 5,6-BENZOFLAVONE, Method: STANDARD PLATE) of the same compound?
A: inactive; negative

Q: What about the mutagenic call (Test System: Ames Salmonella typhimurium, Strain/Indicator: YG7108pin3ERb5, Metabolic Activation: None, Method: Standard plate) of the same compound?
A: inactive; negative

Q: And the mutagenic call (Test System: E. COLI, Strain/Indicator: WP2 (PKM101), Metabolic Activation: RAT LIVER S-9, PHENOBARBITAL AND 5,6-BENZOFLAVONE, Method: STANDARD PLATE)?
A: inactive; negative

Q: And the mutagenic call (Test System: E. COLI, Strain/Indicator: WP2 UVRA (PKM101), Metabolic Activation: RAT LIVER S-9, PHENOBARBITAL AND 5,6-BENZOFLAVONE, Method: STANDARD PLATE)?
A: inactive; negative

Q: What about the mutagenic call (Test System: E. COLI, Strain/Indicator: WP2 UVRA, Metabolic Activation: NONE, Method: FLUCTUATION TEST) of the same compound?
A: inactive; negative

Q: And the mutagenic call (Test System: MOUSE LYMPHOMA, Strain/Indicator: L5178Y (TK+/TK-), Metabolic Activation: NONE, Method: MICROWELL)?
A: inactive; negative

Q: What about the mutagenic call (Test System: MOUSE LYMPHOMA, Strain/Indicator: L5178Y (TK+/TK-), Metabolic Activation: S-9, Method: MICROWELL) of the same compound?
A: inactive; negative

Q: What about the mutagenic call (Test System: UDS MOUSE SPERMATIDS, Strain/Indicator: THY INCORP, Metabolic Activation: NONE) of the same compound?
A: active; positive
